test system: PDE4; test: Evaluation of PDE4 inhibition (scintillation proximity assay); assay type: biochemical; details: inhibition rate relative to control, test compound at 1 μM
Description: Test Example 1 Evaluation of PDE4 Inhibition
The PDE4 inhibitory activity was measured by using scintillation proximity assay (SPA) as follows: one in which a sample compound dissolved in dimethyl sulfoxide was diluted 10-fold with a buffer solution for reaction containing 50 mM Tris-HCl, pH 7.5, 8.3 mM MgCl2, 1.7 mM EDTA and 0.3 mg/mL bovine serum albumin (BSA) was added at 10 μL/well to a 96-well assay plate. Further, PDE4 diluted 750-fold with a buffer solution for reaction was added at 50 μL/well, then [2,8-^3H]-Adenosine-3′,5′-cyclic phosphate triethylammonium salt diluted 1000-fold with a buffer solution for reaction was added at 40 μL/well, and the plate was left standing at room temperature for 120 minutes. Thereafter, a suspension of RNA binding YSi-SPA Beads containing 200 mM ZnSO4 was added at 50 μL/well, and the plate was left standing at room temperature for 15 minutes to adsorb the enzyme reaction product onto the Beads. Thereafter, the radioactivity was measured with a liquid scintillation counter for 96-well plates. When one supplemented with only a buffer solution for reaction without adding the enzyme preparation was used as a blank and one supplemented with the enzyme preparation but supplemented with only dimethyl sulfoxide instead of the sample solution was used as a control, the inhibition rate of the test compound relative to the control was calculated according to the following calculation expression: Inhibition rate (%)={1−(Numeric value from the addition of each sample−Blank value)/(Control value−Blank value)}×100

Row | Compound | PDE4 inhibitory activity (1 μM (%)) [%]
1 | C[C@H]1CNCCN1c1nc2cc(Cl)cc(C3CCCO3)c2o1 (mixture of isomers) [Example 80, 5-Chloro-2-((S)-2-methylpiperazin-1-yl)-7-(tetrahydrofuran-2-yl)benzoxazole] | 42
2 | CC(C)c1cc(Cl)cc2nc(N3CCNC[C@@H]3C)oc12 [Example 1, (S)-5-Chloro-7-isopropyl-2-(2-methylpiperazin-1-yl)benzoxazole] | 87
3 | COc1cc(Cl)cc2nc(N3CCNC[C@@H]3C)oc12 [Example 2, (S)-5-Chloro-7-methoxy-2-(2-methylpiperazin-1-yl)benzoxazole] | 23
4 | CC(=O)c1cc(Cl)cc2nc(N3CCNC[C@@H]3C)oc12 [Example 3, (S)-7-Acetyl-5-chloro-2-(2-methylpiperazin-1-yl)benzoxazole] | 50
5 | Cc1cc(Cl)cc2nc(N3[C@H](C)CNC[C@@H]3C)oc12 [Example 4, meso-5-Chloro-2-(2,6-cis-dimethylpiperazin-1-yl)-7-methylbenzoxazole] | 18
6 | Cc1cc(F)cc2nc(N3CCNC[C@@H]3C)oc12 [Example 5, (S)-5-Fluoro-7-methyl-2-(2-methylpiperazin-1-yl)benzoxazole] | 25
7 | Cc1cc(Br)cc2nc(N3CCNC[C@@H]3C)oc12 [Example 6, (S)-5-Bromo-7-methyl-2-(2-methylpiperazin-1-yl)benzoxazole] | 36
8 | CC(C)Oc1cc(Cl)cc2nc(N3CCNC[C@@H]3C)oc12 [Example 7, (S)-5-Chloro-7-isopropoxy-2-(2-methylpiperazin-1-yl)benzoxazole] | 59
9 | CCc1cc(Cl)cc2nc(N3CCNC[C@@H]3C)oc12 [Example 8, (S)-5-Chloro-7-ethyl-2-(2-methylpiperazin-1-yl)benzoxazole] | 79
10 | CCOC(=O)c1cc(Cl)cc2nc(N3CCNC[C@@H]3C)oc12 [Example 9, (S)-5-Chloro-7-ethoxycarbonyl-2-(2-methylpiperazin-1-yl)benzoxazole] | 50
11 | C[C@H]1CNCCN1c1nc2cc(Cl)cc(C#N)c2o1 [Example 10, (S)-5-Chloro-7-cyano-2-(2-methylpiperazin-1-yl)benzoxazole] | 36
12 | CCc1cc(Cl)cc2nc(N3CCNC[C@@H]3C(C)C)oc12 [Example 11, (S)-5-Chloro-7-ethyl-2-(2-isopropylpiperazin-1-yl)benzoxazole] | 26
13 | CCc1cc(Cl)cc2nc(N3CCNC[C@@H]3CC(C)C)oc12 [Example 12, (S)-5-Chloro-7-ethyl-2-(2-isobutylpiperazin-1-yl)benzoxazole] | <10
14 | CCCC[C@H]1CNCCN1c1nc2cc(Cl)cc(CC)c2o1 [Example 13, (S)-2-(2-n-Butylpiperazin-1-yl)-5-chloro-7-ethylbenzoxazole] | <10
15 | CCc1cc(Cl)cc2nc(N3CCNC[C@@H]3CC)oc12 [Example 14, (S)-5-Chloro-7-ethyl-2-(2-ethylpiperazin-1-yl)benzoxazole] | 37
16 | C[C@H]1CNCCN1c1nc2cc(Cl)cc(CO)c2o1 [Example 15, (S)-5-Chloro-7-hydroxymethyl-2-(2-methylpiperazin-1-yl)benzoxazole] | 21
17 | C[C@H]1CNCCN1c1nc2cc(Cl)cc(-c3ccsc3)c2o1 [Example 16, (S)-5-Chloro-2-(2-methylpiperazin-1-yl)-7-(thiophen-3-yl)benzoxazole] | 75

Row | Compound | PDE4 inhibitory activity (1 μM (%)) [%]
18 | C[C@H]1CNCCN1c1nc2cc(Cl)cc(-c3ccoc3)c2o1 [Example 17, (S)-5-Chloro-7-(furan-3-yl)-2-(2-methylpiperazin-1-yl)benzoxazole] | 84
19 | C[C@H]1CNCCN1c1nc2cc(Cl)cc(-c3cccs3)c2o1 [Example 18, (S)-5-Chloro-2-(2-methylpiperazin-1-yl)-7-(thiophen-2-yl)benzoxazole] | 76
20 | C[C@H]1CNCCN1c1nc2cc(Cl)cc(-c3ccccc3)c2o1 [Example 19, (S)-5-Chloro-2-(2-methylpiperazin-1-yl)-7-phenylbenzoxazole] | 76
21 | C[C@H]1CNCCN1c1nc2cc(Cl)cc(N3CCCC3)c2o1 [Example 20, (S)-5-Chloro-2-(2-methylpiperazin-1-yl)-7-(pyrrolidin-1-yl)benzoxazole] | 71
22 | C[C@H]1CNCCN1c1nc2cc(Cl)cc(N3CCOCC3)c2o1 [Example 21, (S)-5-Chloro-2-(2-methylpiperazin-1-yl)-7-(morpholin-1-yl)benzoxazole] | 59
23 | C[C@H]1CNCCN1c1nc2cc(Cl)cc(N3CCCCC3)c2o1 [Example 22, (S)-5-Chloro-2-(2-methylpiperazin-1-yl)-7-(piperidin-1-yl)benzoxazole] | 40
24 | C[C@H]1CNCCN1c1nc2cc(Cl)cc(-c3ccco3)c2o1 [Example 23, (S)-5-Chloro-7-(furan-2-yl)-2-(2-methylpiperazin-1-yl)benzoxazole] | 95
25 | C[C@H]1CNCCN1c1nc2cc(Cl)cc(NC3CCCC3)c2o1 [Example 24, (S)-5-Chloro-7-(cyclopentylamino)-2-(2-methylpiperazin-1-yl)benzoxazole] | 27
26 | CCN(CC)c1cc(Cl)cc2nc(N3CCNC[C@@H]3C)oc12 [Example 25, (S)-5-Chloro-7-diethylamino-2-(2-methylpiperazin-1-yl)benzoxazole] | 53
27 | C[C@H]1CNCCN1c1nc2cc(Cl)cc(N(C)C)c2o1 [Example 26, (S)-5-Chloro-7-dimethylamino-2-(2-methylpiperazin-1-yl)benzoxazole] | 61
28 | C[C@H]1CNCCN1c1nc2cc(Cl)cc(C3CC3)c2o1 [Example 27, (S)-5-Chloro-7-cyclopropyl-2-(2-methylpiperazin-1-yl)benzoxazole] | 85
29 | C[C@H]1CNCCN1c1nc2cc(Cl)cc(OC3CCCC3)c2o1 [Example 28, (S)-5-Chloro-7-(cyclopentyloxy)-2-(2-methylpiperazin-1-yl)benzoxazole] | 81
30 | CCOc1cc(Cl)cc2nc(N3CCNC[C@@H]3C)oc12 [Example 29, (S)-5-Chloro-7-ethoxy-2-(2-methylpiperazin-1-yl)benzoxazole] | 63
31 | CCCOc1cc(Cl)cc2nc(N3CCNC[C@@H]3C)oc12 [Example 30, (S)-5-Chloro-2-(2-methylpiperazin-1-yl)-7-n-propoxybenzoxazole] | 61
32 | C[C@H]1CNCCN1c1nc2cc(Cl)cc(C3CCCC3)c2o1 [Example 31, (S)-5-Chloro-7-cyclopentyl-2-(2-methylpiperazin-1-yl)benzoxazole] | 51
33 | CCCCc1cc(Cl)cc2nc(N3CCNC[C@@H]3C)oc12 [Example 32, (S)-7-n-Butyl-5-chloro-2-(2-methylpiperazin-1-yl)benzoxazole] | 62
34 | C[C@H]1CNCCN1c1nc2cc(Cl)cc(-n3cccn3)c2o1 [Example 33, (S)-5-Chloro-2-(2-methylpiperazin-1-yl)-′7-(1H-pyrazol-1-yl)benzoxazole] | 93

Reference: patent publication US9890142B2, “PDE4 inhibitor” (Meiji Seika Pharma Co., Ltd., priority 2013, dated 2018)
